Experimental data: paper PMC3539664, “Convergent synthesis and evaluation of ^18F-labeled azulenic COX2 probes for cancer imaging” (Frontiers in Oncology, 2013)
Entries after “also recorded” stand apart in the source; their conditions may differ.

Columns and labels:
C57MG tumors = test: In vivo microPET/CT imaging of COX2 in tumor-bearing mouse model; parameters: species or system mice
Experimental: The experimental protocol for animal imaging was approved by the Vanderbilt Medical Center Institutional Animal Care and Use Committee. Nude mice 6–8 weeks of age (n = 8, from Jackson Laboratory, Bar Harbor, ME, USA) were implanted subcutaneously under anesthesia (isoflurane mixed […]) with 1.0 × 10^6 C57MG cells in the mammary fat pad. The progress of tumor growth was monitored via every-other-day measurement of tumor size and animal weight. When the tumors reached approximately 4 mm in diameter, in vivo PET imaging was performed.
Positron emission tomography imaging was performed using the microPET Focus 220 (Siemens Pre-clinical, Knoxville, TN, USA) in a static acquisition mode for 30 min at 60, 120, and 150 min after injection of ^18F-COX2 probe 13 (150–200 μCi, 100–130 μL) into awake, non-fasted mice (n = 8) via the tail vein. To obtain whole-body scans, mice were placed in a supine position. The data were acquired in a 3-D mode with an axial span of approximately 8 cm. During the scanning, the animals were anesthetized using isoflurane and the temperature inside the scanner was maintained at 30°C using a pad connected to a circulating warm water bath. After PET imaging, a CT image was acquired using the microCAT II (Siemens Pre-clinical, Knoxville, TN, USA) using the same animal holder with the subjects maintained under anesthesia throughout, and then the mice were immediately euthanized upon completion of the CT scan. PET images were reconstructed using the iterative MAP reconstruction algorithm with 18 iterations and a beta smoothing value of 0.001 into 128 × 128 × 95 slices with a voxel size of 0.475 mm × 0.475 mm × 0.796 mm. The PET and CT images were co-registered using the imaging tool AMIDE ([Loening and Gambhir, 2003]).

[1] = Biodistribution by gamma counting of tissues after imaging; format: in vivo; conditions: non-fasted tumor-bearing mice (n = 3), 150 min post injection (Figure 5)
From the text: After the imaging session, the mice were euthanized and hearts, muscles, blood, livers, spleens, kidneys, stomachs, brains, intestines, tumors, and lungs were retrieved. The tissues were weighed and assessed for ^18F radioactivity using a gamma counter (CRC-15W, Capintec, Ramsey, NJ, USA).

Structure (SMILES): Cc1csc(Cc2c3cccccc-3c(C(=O)c3ccc([18F])cc3)c2C)n1 [compound 13]
- Hepatic uptake of the probe (PET) (C57MG tumors; non-fasted C57MG tumor-bearing mice, i.v., PET imaging): predominant hepatic uptake
- Bone signal / in vivo defluorination (PET) (C57MG tumors; non-fasted C57MG tumor-bearing mice, i.v., up to 2.5 h post injection): negligible signal in the bone; also recorded: no defluorination of the probe in vivo
- Tumor accumulation and retention of the probe (PET, PET/CT) (C57MG tumors; non-fasted nude mice with C57MG mammary fat pad tumors, i.v. tail vein, static whole-body scan 150 min after administration, vs background p < 0.05): significant accumulation in the tumor
- Biodistribution: tissue uptake (% injection dose/g tissue) [1]: the probe accumulated in the tumor; also recorded: highest uptake was detected in the liver, followed by the intestine
